Source: PubChem BioAssay AID2060884 (Molecular Pharmacology Branch, DTP, NCI, 2025)

Test system: NCI-H929 complex spheroids, viability % test/control
Assay: Anticancer human tumor NCI-H929 cell line growth inhibition [RAS];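 further: compound exposure lasted seven days before viability was read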;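 on viability, T/C: 100% = DMSO vehicle control viability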
Conditions: for IC50: curve of first compound; for viability, T/C: stronger effect = lower value
Summary of the method: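 Multi-cell-type spheroids: tumor cells plus HUVEC endothelial cells and mesenchymal stem cells. RAS-pathway inhibitors were combined with targeted agents, each dosed in half-log steps down from clinical Cmax, or from 10 microM when Cmax was unknown.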

CC1(C)CCC(Nc2ncc(C(F)(F)F)c(-c3c[nH]c4c(P(C)(C)=O)c(C#N)ccc34)n2)CN1 (stereo unspecified) + C#Cc1c(F)ccc2cc(O)cc(-c3ncc4c(N5CC6CCC(C5)N6)nc(OCC56CCCN5CC(F)C6)nc4c3F)c12
IC50 (second compound 0.0316 µM): 6.01 nM | IC50 (second compound 0.1 µM): 6.55 nM | IC50 (second compound 0.316 µM): 6.56 nM | IC50 (second compound 1 µM): 6.55 nM | IC50 (second compound 3.16 µM): 6.8 nM | IC50 (second compound 10 µM): 6.8 nM | viability, T/C (second compound 0.0316 µM, first compound 0.000949 µM): 129% | viability, T/C (second compound 0.0316 µM, first compound 0.003 µM): 98.5% | viability, T/C (second compound 0.0316 µM, first compound 0.00949 µM): 17.9% | viability, T/C (second compound 0.0316 µM, first compound 0.03 µM): 12.8% | viability, T/C (second compound 0.0316 µM, first compound 0.0949 µM): 8.56% | viability, T/C (second compound 0.0316 µM, first compound 0.3 µM): 5.72% | viability, T/C (second compound 0.1 µM, first compound 0.000949 µM): 124% | viability, T/C (second compound 0.1 µM, first compound 0.003 µM): 116% | viability, T/C (second compound 0.1 µM, first compound 0.00949 µM): 18.6% | viability, T/C (second compound 0.1 µM, first compound 0.03 µM): 13.8% | viability, T/C (second compound 0.1 µM, first compound 0.0949 µM): 8.47% | viability, T/C (second compound 0.1 µM, first compound 0.3 µM): 5.88% | viability, T/C (second compound 0.316 µM, first compound 0.000949 µM): 127% | viability, T/C (second compound 0.316 µM, first compound 0.003 µM): 114% | viability, T/C (second compound 0.316 µM, first compound 0.00949 µM): 19.6% | viability, T/C (second compound 0.316 µM, first compound 0.03 µM): 18% | viability, T/C (second compound 0.316 µM, first compound 0.0949 µM): 8.37% | viability, T/C (second compound 0.316 µM, first compound 0.3 µM): 5.86% | viability, T/C (second compound 1 µM, first compound 0.000949 µM): 121% | viability, T/C (second compound 1 µM, first compound 0.003 µM): 112% | viability, T/C (second compound 1 µM, first compound 0.00949 µM): 19.3% | viability, T/C (second compound 1 µM, first compound 0.03 µM): 48.8% | viability, T/C (second compound 1 µM, first compound 0.0949 µM): 9.11% | viability, T/C (second compound 1 µM, first compound 0.3 µM): 5.75% | viability, T/C (second compound 3.16 µM, first compound 0.000949 µM): 127% | viability, T/C (second compound 3.16 µM, first compound 0.003 µM): 118% | viability, T/C (second compound 3.16 µM, first compound 0.00949 µM): 22.1% | viability, T/C (second compound 3.16 µM, first compound 0.03 µM): 22.5% | viability, T/C (second compound 3.16 µM, first compound 0.0949 µM): 9.71% | viability, T/C (second compound 3.16 µM, first compound 0.3 µM): 6.25% | viability, T/C (second compound 10 µM, first compound 0.000949 µM): 125% | viability, T/C (second compound 10 µM, first compound 0.003 µM): 104% | viability, T/C (second compound 10 µM, first compound 0.00949 µM): 23.3% | viability, T/C (second compound 10 µM, first compound 0.03 µM): 63.5% | viability, T/C (second compound 10 µM, first compound 0.0949 µM): 14.7% | viability, T/C (second compound 10 µM, first compound 0.3 µM): 10.9%

Nc1ccn(C2OC(CO)C(O)C2(F)F)c(=O)n1 (stereo unspecified) + CCn1c(-c2cc(N3CCN(C)CC3)cnc2C(C)OC)c2c3cc(ccc31)-c1csc(n1)CC(NC(=O)C1CC1C)C(=O)N1CCCC(N1)C(=O)OCC(C)(C)C2
IC50 (second compound 0.000949 µM): 7.3 nM | IC50 (second compound 0.003 µM): 6.69 nM | IC50 (second compound 0.00949 µM): 6.61 nM | IC50 (second compound 0.03 µM): < 3.16 nM | IC50 (second compound 0.0949 µM): < 3.16 nM | IC50 (second compound 0.3 µM): < 3.16 nM | viability, T/C (second compound 0.000949 µM, first compound 0.00316 µM): 110% | viability, T/C (second compound 0.000949 µM, first compound 0.01 µM): 27.6% | viability, T/C (second compound 0.000949 µM, first compound 0.0316 µM): 2.05% | viability, T/C (second compound 0.000949 µM, first compound 0.1 µM): 2.16% | viability, T/C (second compound 0.000949 µM, first compound 0.316 µM): 1.6% | viability, T/C (second compound 0.000949 µM, first compound 1 µM): 1.6% | viability, T/C (second compound 0.003 µM, first compound 0.00316 µM): 105% | viability, T/C (second compound 0.003 µM, first compound 0.01 µM): 20.4% | viability, T/C (second compound 0.003 µM, first compound 0.0316 µM): 2.07% | viability, T/C (second compound 0.003 µM, first compound 0.1 µM): 1.75% | viability, T/C (second compound 0.003 µM, first compound 0.316 µM): 1.35% | viability, T/C (second compound 0.003 µM, first compound 1 µM): 1.62% | viability, T/C (second compound 0.00949 µM, first compound 0.00316 µM): 127% | viability, T/C (second compound 0.00949 µM, first compound 0.01 µM): 6.62% | viability, T/C (second compound 0.00949 µM, first compound 0.0316 µM): 1.99% | viability, T/C (second compound 0.00949 µM, first compound 0.1 µM): 2.73% | viability, T/C (second compound 0.00949 µM, first compound 0.316 µM): 1.58% | viability, T/C (second compound 0.00949 µM, first compound 1 µM): 1.35% | viability, T/C (second compound 0.03 µM, first compound 0.00316 µM): 15.2% | viability, T/C (second compound 0.03 µM, first compound 0.01 µM): 3.12% | viability, T/C (second compound 0.03 µM, first compound 0.0316 µM): 1.8% | viability, T/C (second compound 0.03 µM, first compound 0.1 µM): 1.5% | viability, T/C (second compound 0.03 µM, first compound 0.316 µM): 1.42% | viability, T/C (second compound 0.03 µM, first compound 1 µM): 1.24% | viability, T/C (second compound 0.0949 µM, first compound 0.00316 µM): 2.68% | viability, T/C (second compound 0.0949 µM, first compound 0.01 µM): 1.67% | viability, T/C (second compound 0.0949 µM, first compound 0.0316 µM): 1.66% | viability, T/C (second compound 0.0949 µM, first compound 0.1 µM): 1.4% | viability, T/C (second compound 0.0949 µM, first compound 0.316 µM): 1.18% | viability, T/C (second compound 0.0949 µM, first compound 1 µM): 1.05% | viability, T/C (second compound 0.3 µM, first compound 0.00316 µM): 1.41% | viability, T/C (second compound 0.3 µM, first compound 0.01 µM): 1.1% | viability, T/C (second compound 0.3 µM, first compound 0.0316 µM): 1.1% | viability, T/C (second compound 0.3 µM, first compound 0.1 µM): 1.32% | viability, T/C (second compound 0.3 µM, first compound 0.316 µM): 1.02% | viability, T/C (second compound 0.3 µM, first compound 1 µM): 0.86%

CC(C)NCC(C(=O)N1CCN(c2ncnc3c2C(C)CC3O)CC1)c1ccc(Cl)cc1 (stereo unspecified) + C=CC(=O)N1CCN(c2nc(OCC3CCCN3C)nc3c(F)c(-c4nc(N)cc(C)c4C(F)(F)F)c(Cl)cc23)C(C)C1
IC50 (second compound 0.00316 µM): 2820 nM | IC50 (second compound 0.01 µM): 3070 nM | IC50 (second compound 0.0316 µM): 4680 nM | IC50 (second compound 0.1 µM): 4080 nM | IC50 (second compound 0.316 µM): 2490 nM | IC50 (second compound 1 µM): 3660 nM | viability, T/C (second compound 0.00316 µM, first compound 0.0316 µM): 102% | viability, T/C (second compound 0.00316 µM, first compound 0.1 µM): 101% | viability, T/C (second compound 0.00316 µM, first compound 0.316 µM): 108% | viability, T/C (second compound 0.00316 µM, first compound 1 µM): 101% | viability, T/C (second compound 0.00316 µM, first compound 3.16 µM): 44.4% | viability, T/C (second compound 0.00316 µM, first compound 10 µM): 12.1% | viability, T/C (second compound 0.01 µM, first compound 0.0316 µM): 103% | viability, T/C (second compound 0.01 µM, first compound 0.1 µM): 103% | viability, T/C (second compound 0.01 µM, first compound 0.316 µM): 105% | viability, T/C (second compound 0.01 µM, first compound 1 µM): 104% | viability, T/C (second compound 0.01 µM, first compound 3.16 µM): 48.5% | viability, T/C (second compound 0.01 µM, first compound 10 µM): 15.1% | viability, T/C (second compound 0.0316 µM, first compound 0.0316 µM): 97.5% | viability, T/C (second compound 0.0316 µM, first compound 0.1 µM): 103% | viability, T/C (second compound 0.0316 µM, first compound 0.316 µM): 108% | viability, T/C (second compound 0.0316 µM, first compound 1 µM): 103% | viability, T/C (second compound 0.0316 µM, first compound 3.16 µM): 67.6% | viability, T/C (second compound 0.0316 µM, first compound 10 µM): 16.1% | viability, T/C (second compound 0.1 µM, first compound 0.0316 µM): 101% | viability, T/C (second compound 0.1 µM, first compound 0.1 µM): 105% | viability, T/C (second compound 0.1 µM, first compound 0.316 µM): 110% | viability, T/C (second compound 0.1 µM, first compound 1 µM): 108% | viability, T/C (second compound 0.1 µM, first compound 3.16 µM): 60% | viability, T/C (second compound 0.1 µM, first compound 10 µM): 15.2% | viability, T/C (second compound 0.316 µM, first compound 0.0316 µM): 102% | viability, T/C (second compound 0.316 µM, first compound 0.1 µM): 105% | viability, T/C (second compound 0.316 µM, first compound 0.316 µM): 109% | viability, T/C (second compound 0.316 µM, first compound 1 µM): 106% | viability, T/C (second compound 0.316 µM, first compound 3.16 µM): 35.4% | viability, T/C (second compound 0.316 µM, first compound 10 µM): 15.4% | viability, T/C (second compound 1 µM, first compound 0.0316 µM): 114% | viability, T/C (second compound 1 µM, first compound 0.1 µM): 115% | viability, T/C (second compound 1 µM, first compound 0.316 µM): 108% | viability, T/C (second compound 1 µM, first compound 1 µM): 108% | viability, T/C (second compound 1 µM, first compound 3.16 µM): 56.3% | viability, T/C (second compound 1 µM, first compound 10 µM): 6.44%
